Measurements taken from ChEMBL document CHEMBL1275543, “Proposed MIC and disk diffusion microbiological cutoffs and spectrum of activity of retapamulin, a novel topical antimicrobial agent” (2008).
Values after ≈ are worked out from the molar mass of the structure shown.

Columns and labels:
Format in all cases: functional
[1] = system: Streptococcus pyogenes; experiment: Antibacterial activity against Streptococcus pyogenes
[2] = system: Staphylococcus aureus; experiment: Antibacterial activity against methicillin sensitive Staphylococcus aureus
[3] = system: Staphylococcus; experiment: Antibacterial activity against methicillin sensitive coagulase-negative Staphylococcus
[4] = system: Streptococcus viridans; experiment: Antibacterial activity against Streptococcus viridans
[5] = system: Staphylococcus aureus; experiment: Antibacterial activity against vancomycin intermediate Staphylococcus aureus
[6] = system: Enterococcus; experiment: Antibacterial activity against Enterococcus species
[7] = system: Staphylococcus aureus; experiment: Ratio of MBC90 to MIC90 for Staphylococcus aureus
[8] = system: Staphylococcus; experiment: Antibacterial activity against methicillin resistant coagulase-negative Staphylococcus
[9] = system: Staphylococcus aureus; experiment: Antibacterial activity against Staphylococcus aureus
[10] = Antibacterial activity against gram-negative Bacilli species
[11] = system: Staphylococcus; experiment: Ratio of MBC90 to MIC90 for coagulase-negative Staphylococcus
[12] = system: Staphylococcus aureus; experiment: Antibacterial activity against methicillin resistant Staphylococcus aureus
[13] = Antibacterial activity against beta-hemolytic Streptococcus group G; settings: Streptococcus sp. 'group G'
[14] = system: Streptococcus agalactiae; experiment: Antibacterial activity against Streptococcus agalactiae
[15] = system: Streptococcus pyogenes; experiment: Ratio of MBC90 to MIC90 for Streptococcus pyogenes
[16] = system: Staphylococcus; experiment: Antibacterial activity against coagulase-negative Staphylococcus
[17] = Antibacterial activity against beta-hemolytic Streptococcus group C; settings: Streptococcus sp. 'group C'

Structure (SMILES) | MIC50 ([1]; Streptococcus pyogenes) [mg/L] | MIC90 ([1]; Streptococcus pyogenes) [mg/L] | MIC50 [2] [mg/L] | MIC90 [2] [mg/L] | MIC50 [3] [mg/L] | MIC90 [3] [mg/L] | MIC50 [4] [mg/L] | MIC90 [4] [mg/L] | MIC50 [5] [mg/L] | MIC90 [5] [mg/L] | MIC50 [6] [mg/L] | MIC90 [6] [mg/L] | MIC50 [8] [mg/L] | MIC90 [8] [mg/L] | MIC50 [10] [mg/L] | MIC90 [10] [mg/L] | MIC50 [12] [mg/L] | MIC90 [12] [mg/L] | MIC50 [13] [mg/L] | MIC90 [13] [mg/L] | other results
C=C[C@]1(C)C[C@@H](OC(=O)CS[C@@H]2C[C@H]3CC[C@@H](C2)N3C)[C@]2(C)[C@H](C)CC[C@]3(CCC(=O)[C@H]32)[C@@H](C)[C@@H]1O [RETAPAMULIN] | 0.016 (≈ 0.0309 µM) | 0.03 (≈ 0.0579 µM) | 0.12 (≈ 0.232 µM) | 0.12 (≈ 0.232 µM) | 0.12 (≈ 0.232 µM) | 4 (≈ 7.73 µM) | 0.06 (≈ 0.116 µM) | 0.25 (≈ 0.483 µM) | 0.06 (≈ 0.116 µM) | 0.12 (≈ 0.232 µM) | 64 (≈ 124 µM) | 128 (≈ 247 µM) | 0.06 (≈ 0.116 µM) | 0.12 (≈ 0.232 µM) | 256 (≈ 494 µM) | > 512 | 0.12 (≈ 0.232 µM) | 0.12 (≈ 0.232 µM) | 0.03 (≈ 0.0579 µM) | 0.06 (≈ 0.116 µM) | Activity [1]: 16 µg/mL; MIC ([1]; Streptococcus pyogenes): 0.016 mg/L (≈ 0.0309 µM); Ratio [7]: 1024; Activity [9]: 128 µg/mL; Ratio [11]: 512; MIC50 [14]: 0.03 mg/L (≈ 0.0579 µM); MIC90 [14]: 0.03 mg/L (≈ 0.0579 µM); Ratio [15]: 256; MBC [16]: 64 mg/L (≈ 124 µM); MIC [17]: 0.016 mg/L (≈ 0.0309 µM); MIC50 [17]: 0.016 mg/L (≈ 0.0309 µM); MIC90 [17]: 0.03 mg/L (≈ 0.0579 µM)
C/C(=C\C(=O)OCCCCCCCCC(=O)O)C[C@@H]1OC[C@H](C[C@@H]2O[C@H]2[C@@H](C)[C@H](C)O)[C@@H](O)[C@H]1O [MUPIROCIN] | 0.12 (≈ 0.24 µM) | 0.25 (≈ 0.499 µM) | 0.25 (≈ 0.499 µM) | 0.5 (≈ 0.999 µM) | 0.25 (≈ 0.499 µM) | 32 (≈ 63.9 µM) | 1 (≈ 2 µM) | 2 (≈ 3.99 µM) | 0.25 (≈ 0.499 µM) | 1 (≈ 2 µM) | 32 (≈ 63.9 µM) | > 32 | 0.25 (≈ 0.499 µM) | > 32 | > 32 | > 32 | 0.25 (≈ 0.499 µM) | 2 (≈ 3.99 µM) | 0.25 (≈ 0.499 µM) | 0.5 (≈ 0.999 µM) | MIC50 [14]: 1 mg/L (≈ 2 µM); MIC90 [14]: 2 mg/L (≈ 3.99 µM); MIC50 [17]: 0.5 mg/L (≈ 0.999 µM); MIC90 [17]: 1 mg/L (≈ 2 µM)
